Measured values taken from patent publication US20100021918A1, “METHOD FOR ASSAYING ACTION OF ANTITUMOR AGENT USING SPLICING DEFECTS AS INDEX” (Eisai R&D Management Co., Ltd., priority 2007, published 2010).

Tested on: human colon carcinoma cell strain WiDr
Test: Microarray analysis (Human Exon 1.0 ST Array) of intron expression, Table 1
Assay type: cell-based
Settings: six hours
Method: Using RNA purified from human colon carcinoma cell strain WiDr treated with 14 nM of (8E,12E,14E)-7-((4-cycloheptylpiperazin-1-yl)carbonyl)oxy-3,6,16,21-tetrahydroxy-6,10,12,16,20-pentamethyl-18,19-epoxytricosa-8,12,14-trien-11-olide (also referred to as “[…]”) for six hours, microarray analysis (Human Exon 1.0 ST Array: Affymetrix) was carried out. Not only does this array comprehensively cover the exons for all genes, but it is also designed to have probes for regions estimated as potential exons by a computer prediction program, which enables detection of the expression of the exons and introns of all genes in theory.
WiDr cells were first suspended in RPMI1640 medium (containing 10% FBS, penicillin, and streptomycin) and seeded in a 10 cm dish (2×10^6 cells/dish). After an overnight culture in an incubator with 5% carbon dioxide gas at 37° C., the medium was changed with medium containing 14 nM of (8E,12E,14E)-7-((4-cycloheptylpiperazin-1-yl)carbonyl)oxy-3,6,16,21-tetrahydroxy-6,10,12,16,20-pentamethyl-18,19-epoxytricosa-8,12,14-trien-11-olide or containing vehicle alone. After cultured for additional six hours, TRI reagent (SIGMA) were added to the cells and the cells were harvested. RNA was purified in accordance with the protocol of TRI reagent, followed by further purification with RNeasy (QIAGEN). Absorbance at 260 nm was measured to quantify an amount of RNA. This experiment was repeated three times and RNA samples (n=3) were prepared.
Ribosomal RNA was removed from 1 μg of each total RNA of control cells (n=3) and cells with the treatment (n=3) by using RiboMinus Human/Mouse Transcriptome Isolation Kit (Invitrogen). Single stranded cDNA synthesis, double stranded cDNA synthesis, cRNA synthesis, second single stranded cDNA synthesis, cDNA fragmentation, and cDNA labeling in order were carried out for the total RNA from which ribosomal RNA was removed, by using GeneChip Whole Transcript Sense Target Labeling and Control Reagents (Affymetrix) to make a cDNA probe. The cDNA probe was used for hybridization with Human Exon 1.0 ST Array (Affymetrix). The array was washed and stained, and luminescence intensity was measured by a scanner.
The expression level of the probe set and the gene was quantified by using Expression Console Ver. 1.0 (Affymetrix) with Summarization Method and Normalization Method being set to “Median polish as used in RMA” and “None”, respectively. The expression level of the probe was normalized with that of the gene. Welch's t-test was conducted for the treated group and the control group to determine a p value, which was converted into a q value by controlling False Discovery Ratio to pick out a significant probe set.
Probe sets showing that the q value was less than 1%; the normalized change in the level expression of the probe set in the group with the treatment was more than 10 times; the expression level of the probe set and the gene in the group with the treatment was more than 100; and probe set annotation was “extended, full, free”, were picked out and further arranged by gene. A gene was, when more than one probe sets therefor were found, determined as a candidate gene with increased expression level of the intron regions (Table 1). In Table 1, for the gene evaluated, gene name (Gene Name), abbreviated name (Gene Symbol), accession number (Accession), alias name (Synonym), transcription number in Human Exon 1.0 ST Array (Human Exon 1.0 ST Array), chromosome number (Chromosome), type of strand (Strand), start region (Start), stop region (Stop), and change in expression level (Fold Change) were respectively shown.

## CCC(O)C(C)C1OC1CC(C)(O)/C=C/C=C(\C)C1OC(=O)CC(O)CCC(C)(O)C(OC(=O)N2CCN(C3CCCCCC3)CC2)/C=C/C1C (centres unmarked) [E7107, (8E,12E,14E)-7-((4-cycloheptylpiperazin-1-yl)carbonyl)oxy-3,6,16,21-tetrahydroxy-6,10,12,16,20-pentamethyl-18,19-epoxytricosa-8,12,14-trien-11-olide]
Gene ADRM1, 14 nM
  Fold Change (change in expression level, intron probe sets) ADRM1: 13.51
Gene AK2, 14 nM
  Fold Change (change in expression level, intron probe sets) AK2: 10.05
Gene ARFIP2, 14 nM
  Fold Change (change in expression level, intron probe sets) ARFIP2: 12.04
Gene ARHGAP12, 14 nM
  Fold Change (change in expression level, intron probe sets) ARHGAP12: 11.60
Gene ATP1B1, 14 nM
  Fold Change (change in expression level, intron probe sets) ATP1B1: 12.11
Gene BAT2D1, 14 nM
  Fold Change (change in expression level, intron probe sets) BAT2D1: 11.26
Gene BPTF, 14 nM
  Fold Change (change in expression level, intron probe sets) BPTF: 17.61
Gene BXDC2, 14 nM
  Fold Change (change in expression level, intron probe sets) BXDC2: 25.94
Gene C6orf166, 14 nM
  Fold Change (change in expression level, intron probe sets) C6orf166: 19.23
Gene C9orf86 // KIAA1984, 14 nM
  Fold Change (change in expression level, intron probe sets) C9orf86 // KIAA1984: 13.66
Gene C10orf18, 14 nM
  Fold Change (change in expression level, intron probe sets) C10orf18: 19.86
Gene C16orf80, 14 nM
  Fold Change (change in expression level, intron probe sets) C16orf80: 16.25
Gene CABLES1, 14 nM
  Fold Change (change in expression level, intron probe sets) CABLES1: 16.94
Gene CCND1, 14 nM
  Fold Change (change in expression level, intron probe sets) CCND1: 12.66
Gene CCNL2, 14 nM
  Fold Change (change in expression level, intron probe sets) CCNL2: 12.84
Gene CDC20, 14 nM
  Fold Change (change in expression level, intron probe sets) CDC20: 18.22
Gene CENPL, 14 nM
  Fold Change (change in expression level, intron probe sets) CENPL: 14.13
Gene DCBLD2, 14 nM
  Fold Change (change in expression level, intron probe sets) DCBLD2: 19.52
Gene DDEF2, 14 nM
  Fold Change (change in expression level, intron probe sets) DDEF2: 22.92
Gene DKC1, 14 nM
  Fold Change (change in expression level, intron probe sets) DKC1: 11.53
Gene DNAJB1, 14 nM
  Fold Change (change in expression level, intron probe sets) DNAJB1: 11.95
Gene EIF2C2, 14 nM
  Fold Change (change in expression level, intron probe sets) EIF2C2: 21.33
Gene EIF4A1, 14 nM
  Fold Change (change in expression level, intron probe sets) EIF4A1: 16.15
Gene EIF5, 14 nM
  Fold Change (change in expression level, intron probe sets) EIF5: 12.30
Gene FOXK2, 14 nM
  Fold Change (change in expression level, intron probe sets) FOXK2: 18.79
Gene GNB2L1, 14 nM
  Fold Change (change in expression level, intron probe sets) GNB2L1: 11.87
Gene GNL3, 14 nM
  Fold Change (change in expression level, intron probe sets) GNL3: 14.08
Gene GTPBP4, 14 nM
  Fold Change (change in expression level, intron probe sets) GTPBP4: 12.24
Gene HMGCS1, 14 nM
  Fold Change (change in expression level, intron probe sets) HMGCS1: 13.21
Gene HSPA9, 14 nM
  Fold Change (change in expression level, intron probe sets) HSPA9: 13.33
Gene HSPH1, 14 nM
  Fold Change (change in expression level, intron probe sets) HSPH1: 15.12
Gene IDI1, 14 nM
  Fold Change (change in expression level, intron probe sets) IDI1: 19.25
Gene ILF2, 14 nM
  Fold Change (change in expression level, intron probe sets) ILF2: 13.79
Gene ITGB1, 14 nM
  Fold Change (change in expression level, intron probe sets) ITGB1: 21.48
Gene JARID1C, 14 nM
  Fold Change (change in expression level, intron probe sets) JARID1C: 14.09
Gene KIAA0174, 14 nM
  Fold Change (change in expression level, intron probe sets) KIAA0174: 19.65
Gene KIAA1429, 14 nM
  Fold Change (change in expression level, intron probe sets) KIAA1429: 14.19
Gene KLHL18, 14 nM
  Fold Change (change in expression level, intron probe sets) KLHL18: 15.00
Gene KRT18, 14 nM
  Fold Change (change in expression level, intron probe sets) KRT18: 13.41
Gene LMO7, 14 nM
  Fold Change (change in expression level, intron probe sets) LMO7: 14.34
Gene LTV1, 14 nM
  Fold Change (change in expression level, intron probe sets) LTV1: 18.37
Gene MAT2A, 14 nM
  Fold Change (change in expression level, intron probe sets) MAT2A: 12.29
Gene MBNL2, 14 nM
  Fold Change (change in expression level, intron probe sets) MBNL2: 28.86
Gene MYO1E, 14 nM
  Fold Change (change in expression level, intron probe sets) MYO1E: 14.49
Gene NET1, 14 nM
  Fold Change (change in expression level, intron probe sets) NET1: 13.02
Gene NUPL1, 14 nM
  Fold Change (change in expression level, intron probe sets) NUPL1: 12.63
Gene PUM2, 14 nM
  Fold Change (change in expression level, intron probe sets) PUM2: 19.01
Gene RAF1, 14 nM
  Fold Change (change in expression level, intron probe sets) RAF1: 16.41
Gene RIOK3, 14 nM
  Fold Change (change in expression level, intron probe sets) RIOK3: 13.67
Gene RNF40, 14 nM
  Fold Change (change in expression level, intron probe sets) RNF40: 15.84
Gene RSPRY1, 14 nM
  Fold Change (change in expression level, intron probe sets) RSPRY1: 14.32
Gene SART3, 14 nM
  Fold Change (change in expression level, intron probe sets) SART3: 15.13
Gene SLC2A1, 14 nM
  Fold Change (change in expression level, intron probe sets) SLC2A1: 16.44
Gene SMAD3, 14 nM
  Fold Change (change in expression level, intron probe sets) SMAD3: 12.88
Gene SMURF2, 14 nM
  Fold Change (change in expression level, intron probe sets) SMURF2: 16.60
Gene SNX19, 14 nM
  Fold Change (change in expression level, intron probe sets) SNX19: 17.12
Gene SPRED2, 14 nM
  Fold Change (change in expression level, intron probe sets) SPRED2: 31.56
Gene ST3GAL1, 14 nM
  Fold Change (change in expression level, intron probe sets) ST3GAL1: 12.77
Gene SUPV3L1, 14 nM
  Fold Change (change in expression level, intron probe sets) SUPV3L1: 18.81
Gene TARDBP, 14 nM
  Fold Change (change in expression level, intron probe sets) TARDBP: 18.13
Gene TES, 14 nM
  Fold Change (change in expression level, intron probe sets) TES: 15.95
Gene TINF2, 14 nM
  Fold Change (change in expression level, intron probe sets) TINF2: 11.05
Gene TJP1, 14 nM
  Fold Change (change in expression level, intron probe sets) TJP1: 11.55
Gene UBE3A, 14 nM
  Fold Change (change in expression level, intron probe sets) UBE3A: 19.35
Gene USP47, 14 nM
  Fold Change (change in expression level, intron probe sets) USP47: 12.32
Gene VIL2, 14 nM
  Fold Change (change in expression level, intron probe sets) VIL2: 17.50
Gene WAC, 14 nM
  Fold Change (change in expression level, intron probe sets) WAC: 18.53
Gene WDR45L, 14 nM
  Fold Change (change in expression level, intron probe sets) WDR45L: 12.59
Gene WDR73, 14 nM
  Fold Change (change in expression level, intron probe sets) WDR73: 30.61
Gene WDR74, 14 nM
  Fold Change (change in expression level, intron probe sets) WDR74: 12.70
Gene WEE1, 14 nM
  Fold Change (change in expression level, intron probe sets) WEE1: 12.26
Gene YTHDC1, 14 nM
  Fold Change (change in expression level, intron probe sets) YTHDC1: 10.66
Gene ZNF384, 14 nM
  Fold Change (change in expression level, intron probe sets) ZNF384: 12.13
Gene ZNF410, 14 nM
  Fold Change (change in expression level, intron probe sets) ZNF410: 12.01
